Values of other authors, collected in patent US10035822B2, “Cell-reactive, long-acting, or targeted compstatin analogs and related compositions and methods” (APELLIS PHARMACEUTICALS, INC., priority 2012, dated 2018).
Non-standard residues stand in square brackets, D forms with d. Trp(6-F) = N[C@@H](Cc1c[nH]c2cc(F)ccc12)C(=O)O; Bpa = N[C@@H](Cc1ccc(C(=O)c2ccccc2)cc1)C(=O)O; 1Nal = N[C@@H](Cc1cccc2ccccc12)C(=O)O; 2Nal = N[C@@H](Cc1ccc2ccccc2c1)C(=O)O

system: complement activation; conditions: relative to compstatin amidated at the C-terminus; published data (WO2004/026328, WO2007044668, Mallik 2005, Katragadda 2006); cited from earlier work

| Substance | Activity over compstatin |
| --- | --- |
| Ac-ICV(1-Nal)QDWGAHRCT-COOH (Ac-ICV[1Nal]QDWGAHRCT-OH; cysteine pairing not given here) [Ac V4(1-Nal)/H9A-OH] | 30× more |
| Ac-ICV(2-IgI)QDWGAHRCT-CONH2 (Ac-ICV[2‑Igl]QDWGAHRCT-NH2; cysteine pairing not given here) [Ac-V42IgI/H9A] | 39× more |
| Ac-ICV(2-IgI)QDWGAHRCT-COOH (Ac-ICV[2‑Igl]QDWGAHRCT-OH; cysteine pairing not given here) [Ac-V42IgI/H9A-OH] | 37× more |
| Ac-ICV(2-Nal)QDWGAHRCT-CONH2 (Ac-ICV[2Nal]QDWGAHRCT-NH2; cysteine pairing not given here) [Ac-V4(2-Nal)/H9A] | 99× more |
| Ac-ICV(2-Nal)QDWGAHRCT-COOH (Ac-ICV[2Nal]QDWGAHRCT-OH; cysteine pairing not given here) [Ac V4(2-Nal)/H9A-OH] | 38× more |
| Ac-ICV(5-methyl-W)QDWGAHRCT-CONH2 [Ac-V4(5-MeW)/H9A] | 67× more |
| Ac-ICV(5fW)QDWGAHRCT-CONH2 [Ac-V4(5fW)/H9A] | 31× more |
| Ac-ICV(Bpa)QDWGAHRCT-CONH2 (Ac-ICV[Bpa]QDWGAHRCT-NH2; cysteine pairing not given here) [Ac-V4(Bpa)/H9A] | 86× more |
| Ac-ICV(Bpa)QDWGAHRCT-COOH (Ac-ICV[Bpa]QDWGAHRCT-OH; cysteine pairing not given here) [Ac-V4(Bpa)/H9A-OH] | 49× more |
| Ac-ICVDhtQDWGAHRCT-COOH [Ac-V4Dht/H9A-OH] | 5× more |
| Ac-ICVVQDWGHHRCT-CONH2 [Ac-compstatin] | 3× more |
| Ac-ICVWQD(5fW)GAHRCT-CONH2 [Ac-V4W/W7(5fW)/H9A] | 121× more |
| Ac-ICVWQDWGAHRCT-CONH2 [Ac-V4W/H9A] | 45× more |
| Ac-ICVWQDWGAHRCdT-COOH [Ac-V4W/H9A/T13dT-OH] | 55× more |
| Ac-ICVYQDWGAHRCT-CONH2 [Ac-V4Y/H9A] | 14× more |
| H-GICV(6fW)QD(6fW)GAHRCTN-COOH (H-GICV[Trp(6-F)]QD[Trp(6-F)]GAHRCTN-OH; cysteine pairing not given here) [+G/V4(6fW)/W7(6fW)H9A + N-OH] | 126× more |
